The source of these data is patent US9309222B2, “Phenyl linked quinolinyl modulators of RORγt” (Janssen Pharmaceutica NV, priority 2012, dated 2016).

SMILES strings stand for the structures. Counter-ions that a name gives are not always drawn.

Experiment [1] relates to IL-17 production by CD4 T cells. The experiment is described as follows: Human Th17 assay (IL-17 production by CD4 T cells under Th17 differentiation conditions). To be noted: IL-17 in supernatant after 3 days. It is filed as cell-based. An outline of the steps: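 Primary CD4+ T cells from healthy-donor PBMC, preincubated 1 h with titrated compound (0.2% DMSO), then activated with anti-CD3/CD28 beads plus anti-IL4, anti-IFNγ, IL1β, IL23, IL6, TGFβ and IL2.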

Experiment [2] has as its target T1, human RORγt LBD (Homo sapiens, UniProt P51449).
T1 construct: expressed in transfected cells
T1 sequence (P51449 258-518): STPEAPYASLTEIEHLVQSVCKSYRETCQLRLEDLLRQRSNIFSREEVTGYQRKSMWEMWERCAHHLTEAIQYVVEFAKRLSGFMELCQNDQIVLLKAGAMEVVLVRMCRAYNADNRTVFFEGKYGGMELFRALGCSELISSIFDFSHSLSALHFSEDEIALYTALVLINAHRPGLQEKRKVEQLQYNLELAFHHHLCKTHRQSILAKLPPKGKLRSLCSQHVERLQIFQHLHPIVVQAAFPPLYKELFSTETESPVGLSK
The experiment is described as follows: RORγt reporter assay (GAL4-RORγt LBD luciferase in HEK293T cells). It is filed as cell-based. The settings on record: for IC50: 24 hours compound treatment; for inhibition at 6 µM: HEK-293T, read-out: RORγt reporter Assay, % inhibition @ 6 μM, HEK293T cells, 6 μM compound. An outline of the steps: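 Read-out is the firefly-to-renilla luciferase ratio versus compound concentration, after 24 h compound exposure of cells in phenol-red-free DMEM/5% lipid-reduced FCS. Cells were HEK293T bulk-transfected with a GAL4-responsive firefly reporter (pGL4.31) and GAL4 DBD–wild-type human RORγt LBD fusion (pBIND, renilla as transfection/viability control).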

Experiment [3] deals with T2, human RORγt ligand binding domain (RORγt LBD) (Homo sapiens, UniProt P51449).
T2 construct: His-tag (N); TurboTEV protease cleavage site (ENLYFQG) (N); made in house; host or cells: E. coli (pHIS1, modified pET vector)
T2 sequence (P51449 with tags, fused parts or gaps): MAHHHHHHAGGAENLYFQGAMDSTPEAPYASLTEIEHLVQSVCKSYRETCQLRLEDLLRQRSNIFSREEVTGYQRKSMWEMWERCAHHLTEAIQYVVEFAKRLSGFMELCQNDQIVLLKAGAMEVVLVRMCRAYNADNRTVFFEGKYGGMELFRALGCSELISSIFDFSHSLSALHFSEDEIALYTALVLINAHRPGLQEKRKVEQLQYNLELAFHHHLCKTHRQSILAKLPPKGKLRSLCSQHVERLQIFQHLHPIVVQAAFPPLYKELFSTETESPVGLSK
Put plainly: RORγt ThermoFluor assay (thermal shift, ligand binding affinity). To be noted: estimated from concentration response of thermal shift. An outline of the steps: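 Thermal shift of 0.065 mg/mL RORγt with 60 μM 1,8-ANS in 100 mM Hepes pH 7.0, 10 mM NaCl, 2.5 mM GSH, 0.002% Tween-20. Compounds in 1:2 series from 10 mM DMSO stock. Dye fluorescence (500 nm emission) tracked versus temperature; ΔTm used to derive KD.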

`CSc1ncc(C(O)(c2ccc(Cl)cc2)c2ccc3nc(Cl)c(-c4ccccc4)c(Cl)c3c2)n1C` (stereo not drawn) [Example 145, (4-Chlorophenyl)(2,4-dichloro-3-phenylquinolin-6-yl)(1-methyl-2-(methylthio)-1H-imidazol-5-yl)methanol]: the concentration for half-maximal inhibition (IC50) amounted to 1.2 µM in experiment [1] (Homo sapiens, CD4+ T, 72 h) and 0.25 µM in experiment [2] (HEK293T cells). For the same compound, the inhibition at 6 µM in experiment [2] was 93%. Further, in experiment [3], the Kd was 2.1 µM.
Regarding `OC(c1ccc(Cl)cc1)(c1cccnc1)c1ccc2nc(-c3cncnc3)c(-c3ccccc3)c(Cl)c2c1` (stereo not drawn) [Example 152, (4-Chloro-3-phenyl-2-(pyrimidin-5-yl)quinolin-6-yl)(4-chlorophenyl)(pyridin-3-yl)methanol], the IC50 is 1.2 µM in experiment [1] (Homo sapiens, CD4+ T, 72 h) and 0.35 µM in experiment [2] (HEK293T cells). Besides, in experiment [2], the inhibition at 6 µM came to 97%. Besides, in experiment [3], the Kd was 0.77 µM.
The corresponding values for `Cn1cncc1C(O)(c1cccnc1)c1cc(F)c2nc(Cl)c(-c3ccccc3)c(Cl)c2c1` (stereo not drawn) [Example 154, (2,4-Dichloro-8-fluoro-3-phenylquinolin-6-yl)(1-methyl-1H-imidazol-5-yl)(pyridin-3-yl)methanol•TFA] are 1.9 µM, 0.97 µM, 90% and 0.12 µM.
With `Cc1ccc(C(O)(c2cc(C)c3nc(Cl)c(-c4ccccc4)c(Cl)c3c2)c2sccc2C)cn1` (stereo not drawn) [Example 158, (2,4-Dichloro-8-methyl-3-phenylquinolin-6-yl)(6-methylpyridin-3-yl)(3-methylthiophen-2-yl)methanol], the concentration for half-maximal inhibition (IC50) in experiment [1] (Homo sapiens, CD4+ T, 72 h) is greater than 6 µM; in experiment [2] (HEK293T cells), 0.49 µM. Moreover, the inhibition at 6 µM in experiment [2] was 79%. The Kd in experiment [3] is 2 µM.
For `Cc1cc(C(O)(c2cc(C)c3nc(Cl)c(-c4ccccc4)c(Cl)c3c2)c2cncn2C)ccn1` (stereo not drawn) [Example 159, (2,4-Dichloro-8-methyl-3-phenylquinolin-6-yl)(1-methyl-1H-imidazol-5-yl)(2-methylpyridin-4-yl)methanol•TFA], the half-inhibitory concentration (IC50) in experiment [1] (Homo sapiens, CD4+ T, 72 h) came out at 0.075 µM; in experiment [2] (HEK293T cells) it was 0.017 µM. The inhibition at 6 µM in experiment [2] turned out to be 93%. The Kd in experiment [3] is 0.0012 µM.
On to `Cc1cc(C(O)(c2ccnc(C(F)(F)F)c2)c2cncn2C)cc2c(Cl)c(-c3ccccc3)c(Cl)nc12` (stereo not drawn) [Example 160, (2,4-Dichloro-8-methyl-3-phenylquinolin-6-yl)(1-methyl-1H-imidazol-5-yl)(2-(trifluoromethyl)pyridin-4-yl)methanol•TFA], for which the concentration for half-maximal inhibition (IC50) in experiment [1] (Homo sapiens, CD4+ T, 72 h) was 0.69 µM; in experiment [2] (HEK293T cells), 0.12 µM. Further, the inhibition at 6 µM in experiment [2] turned out to be 97%. In addition, the equilibrium dissociation constant (Kd) in experiment [3] is 0.0061 µM.
On to `Cn1cncc1C(O)(c1ccc(Cl)cc1)c1cc2c(Cl)c(-c3ccccc3)c(Cl)nc2cc1F` (stereo not drawn) [Example 161, (4-Chlorophenyl)(2,4-dichloro-7-fluoro-3-phenylquinolin-6-yl)(1-methyl-1H-imidazol-5-yl)methanol•TFA], for which the IC50 amounted to 0.36 µM in experiment [1] (Homo sapiens, CD4+ T, 72 h) and 0.17 µM in experiment [2] (HEK293T cells). Besides, the inhibition at 6 µM in experiment [2] is 104%. Also, the equilibrium dissociation constant (Kd) in experiment [3] was 0.078 µM.
On to `Cn1cncc1C(O)(c1ccncc1)c1ccc2nc(C(F)(F)F)c(-c3ccccc3)c(C(F)(F)F)c2c1` (stereo not drawn) [Example 164, (1-Methyl-1H-imidazol-5-yl)(3-phenyl-2,4-bis(trifluoromethyl)quinolin-6-yl)(pyridin-4-yl)methanol•TFA], for which the concentration for half-maximal inhibition (IC50) in experiment [1] (Homo sapiens, CD4+ T, 72 h) was determined as 0.026 µM; in experiment [2] (HEK293T cells) it was 0.018 µM. For the same compound, in experiment [2], the inhibition at 6 µM stood at 98%. Besides, the Kd in experiment [3] is 0.0012 µM.
As to `O=C(O)C(F)(F)F.OC(c1cccnc1)(c1cccc(Cl)c1)c1ccc2nc(C(F)(F)F)c(-c3ccccc3)c(C(F)(F)F)c2c1` (stereo not drawn) [Example 165, (3-Chlorophenyl)(3-phenyl-2,4-bis(trifluoromethyl)quinolin-6-yl)(pyridin-3-yl)methanol•TFA], the figures for the half-inhibitory concentration (IC50) in experiment [1] and in experiment [2] (HEK293T cells) were 0.097 µM and 0.048 µM, respectively. For the same compound, the “RORγt reporter Assay, % inhibition @ 6 μM” value in experiment [2] (HEK293T cells, 6 μM compound) stood at 98%. Further, the dissociation constant (Kd) in experiment [3] is 0.0024 µM.
For the compound `[O-][n+]1cccc(C(O)(c2cccc(Cl)c2)c2ccc3nc(C(F)(F)F)c(-c4ccccc4)c(C(F)(F)F)c3c2)c1` (stereo not drawn) [Example 166, 3-((3-Chlorophenyl)(hydroxy)(3-phenyl-2,4-bis(trifluoromethyl)quinolin-6-yl)methyl)pyridine 1-oxide•TFA], the half-inhibitory concentration (IC50) in experiment [1] (Homo sapiens, CD4+ T, 72 h) came out at 0.15 µM; in experiment [2] (HEK293T cells), 0.18 µM. For the same compound, the inhibition at 6 µM in experiment [2] stood at 103%. For the same compound, the Kd in experiment [3] is 0.036 µM.
As for `OC(c1ccccc1)(c1cccnc1)c1ccc2nc(C(F)(F)F)c(-c3ccccc3)c(C(F)(F)F)c2c1` (stereo not drawn) [Example 170, Phenyl(3-phenyl-2,4-bis(trifluoromethyl)quinolin-6-yl)(pyridin-3-yl)methanol], the IC50 in experiment [1] (Homo sapiens, CD4+ T, 72 h) worked out at 0.096 µM; in experiment [2] (HEK293T cells), 0.035 µM. The inhibition at 6 µM in experiment [2] was found to be 98%. In experiment [3], the dissociation constant (Kd) was 0.0042 µM.
With `OC(c1ccc(C(F)(F)F)cc1)(c1cccnc1)c1ccc2nc(Cl)c(-c3ccccc3)c(Cl)c2c1` (stereo not drawn) [Example 171, (2,4-Dichloro-3-phenylquinolin-6-yl)(pyridin-3-yl)(4-(trifluoromethyl)phenyl)methanol•TFA], the IC50 was found to be 0.3 µM in experiment [1] (Homo sapiens, CD4+ T, 72 h) and 0.32 µM in experiment [2] (HEK293T cells). In experiment [2], the inhibition at 6 µM was found to be 85%. Besides, the Kd in experiment [3] was 0.14 µM.
In experiment [1] (Homo sapiens, CD4+ T, 72 h), `Cn1nncc1C(O)(c1ccc2nc(C(F)(F)F)c(-c3ccccc3)c(C(F)(F)F)c2c1)c1cnnn1C` [Example 182, Bis(1-methyl-1H-1,2,3-triazol-5-yl)(3-phenyl-2,4-bis(trifluoromethyl)quinolin-6-yl)methanol] returned an IC50 of 0.007 µM. In addition, the inhibition at 6 µM in experiment [2] is 94%. The dissociation constant Kd in experiment [3] was 0.0015 µM.
For the compound `Cn1cncc1C(O)(c1ccc(Cl)cc1)c1ccc2nc(Cl)c(-c3cccc(Cl)c3)c(Cl)c2c1` (stereo not drawn) [Example 187, (4-Chlorophenyl)(2,4-dichloro-3-(3-chlorophenyl)quinolin-6-yl)(1-methyl-1H-imidazol-5-yl)methanol], in experiment [1] (Homo sapiens, CD4+ T, 72 h), the IC50 is greater than 6 µM. Moreover, the inhibition at 6 µM in experiment [2] is 73%. Further, the Kd in experiment [3] was 0.1 µM.
